The nature of this series: Solubilization of retinol in cyclomethicone alone. The settings on record: retinol 0.1-0.2% w/v in cyclomethicone alone. It counts as physicochemical. An excerpt: Volatile organosiloxanes optionally are lightweight carriers that evaporate on application and thus have an elegant, light-weight “feel” on the skin. Volatile organosiloxanes, however, are typically limited in their ability to dissolve low polarity (i.e. usually greater than C7-C8)) organic compounds like retinoids. […] To address this issue vehicles were sought that would be both capable of creating clear solutions of active agent in a volatile organosiloxane carrier, but also have an appropriate evaporation rate in combination with the volatile organosiloxane when placed on the skin so as maintain the light-weight feel on the skin experienced by a user. A vehicle must also not promote unacceptable skin irritation when used at the concentration necessary in the composition.

SMILES strings stand for the structures.

On to `CC1=C(/C=C/C(C)=C/C=C/C(C)=C/CO)C(C)(C)CCC1` [retinol], for which the Appearance of solution entry is “hazy solutions”.
